Measured values published in publication PMC10835127, “Viruses traverse the human proteome through peptide interfaces that can be biomimetically leveraged for drug discovery” (Proceedings of the National Academy of Sciences of the …, 2024).
Read-outs that look alike come from different tables or passages of the source. No end group written: not given here.

Columns and labels:
EBV = details: for EBV Norm MEAN: normalized mean of EBV replication readout
influenza A H1N1 virus = details: 48 hr post-treatment, A549
HIV1 strain NL4-3 = format: cell-based; details: for HIV1 Norm MEAN: normalized mean of HIV1 replication readout; for activity in HIV1 screen (in words): 20 µM peptide, HeLa P4 cells, β-galactosidase
[1] = test system: F. novicida (strain U112); format: cell-based
HCV replicon = format: cell-based; details: normalized mean of HCV replicon readout

Row | Substance | EBV Norm MEAN (EBV) | Neuraminidase activity normalized to vehicle (influenza A H1N1 virus; 200 µM peptide) | Neuraminidase activity normalized to vehicle (influenza A H1N1 virus; 0,823 µM peptide) | Neuraminidase activity normalized to vehicle (influenza A H1N1 virus; 22,2 µM peptide) | Neuraminidase activity normalized to vehicle (influenza A H1N1 virus; 2,4691 µM peptide) | Neuraminidase activity normalized to vehicle (influenza A H1N1 virus; 7,4074 µM peptide) | Neuraminidase activity normalized to vehicle (influenza A H1N1 virus; 66,6667 µM peptide) | HIV1 Norm MEAN (HIV1 strain NL4-3) | Francisella novicida Norm AUC [1] | HCV Norm MEAN (HCV replicon) | EBV Norm MEAN (EBV; peptide screen) | HIV1 Norm MEAN (HIV1 strain NL4-3; peptide screen) | HCV Norm MEAN (HCV replicon; peptide screen) | activity in HIV1 screen (in words) (HIV1 strain NL4-3) | inhibition of EBV late gene reporter signal (EBV; 48 h, 20 µM) [%] | Francisella novicida Norm AUC ([1]; normalized area under the curve)
1 | RPEPTAPPEE [CPEP116] | 0.4152 | 0,7624 | 0,9564 | 0,683 | 0,8677 | 0,7015 | 0,6644 | 0.3699 | 0.6494 | 1.054 | – | – | – | – | – | –
2 | RQARRNRRR [CPEP110] | 2.204 | 0,8723 | 1,0272 | 0,8952 | 0,9228 | 0,9411 | 0,8493 | 0.3127 | 1.637 | 0.05205 | – | – | – | – | – | –
3 | RRKAK [CPEP70] | 1.652 | 1,0392 | 0,9822 | 0,9863 | 0,9261 | 0,9473 | 1,0254 | 3.517 | 0.442 | 0.1385 | – | – | – | – | – | –
4 | RRPSRPFRK [CPEP88] | 0.9654 | 0,55 | 0,9984 | 0,7716 | 0,8217 | 0,8463 | 0,6969 | 0.3045 | 1.028 | 0.6746 | – | – | – | – | – | –
5 | RRRETQV [CPEP148] | 1.54 | 0,7433 | 0,8071 | 0,8272 | 0,7477 | 0,8788 | 0,7757 | 0.7674 | 0.7414 | 0.1353 | – | – | – | – | – | –
6 | RTYGTWEDLFCDESL [CPEP128] | – | 0,6933 | 0,9138 | 1,0305 | 1,0131 | 0,9772 | 1,0247 | – | 0.8745 | – | 1.318 | 0.383 | 0.6752 | – | – | –
7 | RYSKRRHGRR [CPEP118] | 1.996 | 0,7942 | 0,9639 | 0,7875 | 0,9014 | 0,7974 | 0,7776 | 1.129 | 1.247 | 0.2514 | – | – | – | – | – | –
8 | SAIASGIAVS [CPEP72] | 0.8997 | 1,0607 | 1,0538 | 1,1913 | 1,1217 | 1,1419 | 1,1769 | 7.153 | 1.051 | 1.456 | – | – | – | strongly | – | –
9 | SAPCLLKLSTTLLCLEI [CPEP124] | – | 0,1059 | 1,0611 | 0,6181 | 0,9657 | 1,0354 | 0,1507 | – | 0.6911 | – | 0.5543 | 14.9843 | 1.253 | – | – | –
10 | SEKHFRETEV [CPEP106] | 1.282 | 1,1108 | 0,9396 | 1,0803 | 0,9387 | 1,0552 | 1,1055 | 0.4711 | 0.8616 | 1.4 | – | – | – | – | – | –
11 | SEWQRDQFLSQVK [CPEP95] | 0.3991 | 0,9927 | 0,9256 | 0,9538 | 0,9776 | 0,9237 | 1,0019 | 0.5103 | – | 0.2824 | – | – | – | – | 60 | 1.114
12 | SKMQL [CPEP150] | 1.198 | 1,0149 | 0,912 | 0,9305 | 0,7746 | 0,8703 | 0,9907 | 1.8032 | 0.5976 | 0.2118 | – | – | – | – | – | –
13 | SLQYLALAALITPKK [CPEP46] | – | 0,1529 | 0,9309 | 0,9118 | 1,043 | 1,0188 | 0,8482 | – | 0.3644 | – | 0.9835 | 2.169 | 0.6647 | – | – | –
14 | SVWIPVNEGASTSGM [CPEP77] | – | 0,8793 | 0,7817 | 0,9377 | 0,8942 | 0,7709 | 0,8131 | – | 1.232 | – | 1.026 | 0.1545 | 0.6626 | most potent anti-HIV1 peptide | – | –
15 | TGERDW [CPEP119] | 0.6578 | 0,8047 | 0,8876 | 0,8371 | 0,7125 | 0,8133 | 0,8609 | 0.9503 | 1.661 | 0.3105 | – | – | – | – | – | –
16 | TGGER [CPEP30] | 0.8583 | 0,9647 | 0,957 | 0,923 | 0,8714 | 0,8974 | 0,9486 | 1.255 | 0.8411 | 0.2042 | – | – | – | – | – | –
